From patent US7517874B2 (priority 2007, dated 2009) come the findings set out here.

Where two headings read alike, the source gives them in different places.

Experiment [1] concerns the target T1, rat CB2 receptor (rCB2) (Rattus norvegicus, UniProt Q9QZN9).
T1 sequence (Q9QZN9 1-360): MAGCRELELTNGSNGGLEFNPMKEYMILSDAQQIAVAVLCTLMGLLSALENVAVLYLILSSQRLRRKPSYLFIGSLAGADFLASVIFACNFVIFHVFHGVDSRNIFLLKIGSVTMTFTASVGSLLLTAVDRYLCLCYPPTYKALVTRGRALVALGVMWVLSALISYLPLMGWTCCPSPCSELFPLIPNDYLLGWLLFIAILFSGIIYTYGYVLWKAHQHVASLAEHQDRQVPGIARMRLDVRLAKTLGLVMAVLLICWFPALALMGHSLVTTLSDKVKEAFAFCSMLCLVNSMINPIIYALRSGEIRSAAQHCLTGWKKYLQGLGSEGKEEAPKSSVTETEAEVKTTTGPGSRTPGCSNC
Nature of the experiment: cell-based. Type of experiment: cell-based. The following applies: for +/− RCB2: agonist or inverse agonist at rCB2. In outline:
(§1)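 Readout: LANCE TR-FRET cAMP, back-calculated from a concurrent standard curve and scaled between forskolin-only and forskolin + 1 μM CP55,940 wells. EC50 and intrinsic activity came from four-parameter fits.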

For experiment [2], the target named is human CB1 receptor (hCB1) (Homo sapiens, UniProt P21554). Nature of the experiment: cell-based. The experiment is classed as cell-based. The note with it: for +/− HCB1: agonist or inverse agonist at hCB1. In outline: as §1
Chain of human CB1 receptor (hCB1) (P21554 whole entry): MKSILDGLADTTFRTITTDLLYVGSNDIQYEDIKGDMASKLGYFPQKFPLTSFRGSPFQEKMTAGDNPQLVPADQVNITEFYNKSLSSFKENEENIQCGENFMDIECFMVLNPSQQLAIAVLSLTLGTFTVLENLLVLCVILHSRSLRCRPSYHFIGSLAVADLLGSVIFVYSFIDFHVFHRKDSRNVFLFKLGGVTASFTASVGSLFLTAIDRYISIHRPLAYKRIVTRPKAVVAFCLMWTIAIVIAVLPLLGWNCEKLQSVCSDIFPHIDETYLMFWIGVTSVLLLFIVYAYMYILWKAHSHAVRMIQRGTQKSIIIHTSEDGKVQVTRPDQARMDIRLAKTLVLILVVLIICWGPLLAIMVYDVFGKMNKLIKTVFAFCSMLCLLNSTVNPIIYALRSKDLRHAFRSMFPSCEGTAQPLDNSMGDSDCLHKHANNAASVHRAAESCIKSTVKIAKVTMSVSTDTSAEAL
Where [3] appears, read: groups >100 nM-10 μM and >10 μM, cAMP, CHO-K1 hCB1, read-out: EC50 HCB1.

By EC50 is commonly meant the concentration that produces a half-maximal response.

For the molecule `CNC(=O)[C@@H](NC(=O)c1nc(-c2ccc(F)cc2)n2c1CN(C)CCC2)C(C)(C)C` [Compound 437, (S)-N-(3,3-dimethyl-1-(methylamino)-1-oxobutan-2-yl)-3-(4-fluorophenyl)-8-methyl-6,7,8,9-tetrahydro-5H-imidazo[1,5-a][1,4]diazepine-1-carboxamide], the EC50 in experiment [1] and in experiment [2] was above 10000 nM throughout.

With `CNC(=O)[C@@H](NC(=O)c1nc(C2=CCNCC2)n2c1CN(C)CCC2)C(C)(C)C` [Compound 460, (S)-N-(3,3-dimethyl-1-(methylamino)-1-oxobutan-2-yl)-8-methyl-3-(1,2,3,6-tetrahydropyridin-4-yl)-6,7,8,9-tetrahydro-5H-imidazo[1,5-a][1,4]diazepine-1-carboxamide], in experiment [1], the “+/− RCB2” value is “+”. In experiment [2], the “+/− HCB1” value is reported as “+”.

As to `C[C@@H](NC(=O)c1nc(-c2ccccc2)n2c1CNCC2)C(C)(C)C` [Compound 26, (R)-N-(3,3-dimethylbutan-2-yl)-3-phenyl-5,6,7,8-tetrahydroimidazo[1,5-a]pyrazine-1-carboxamide], the half-maximal effective concentration (EC50) in experiment [1] and in experiment [2] was above 10000 nM each time.

In the case of `CNC(=O)[C@@H](NC(=O)c1nc(-c2ccco2)n2c1CNCC2)C(C)(C)C` [Compound 15, (S)-N-(3,3-dimethyl-1-(methylamino)-1-oxobutan-2-yl)-3-(furan-2-yl)-5,6,7,8-tetrahydroimidazo[1,5-a]pyrazine-1-carboxamide], the “+/− RCB2” value in experiment [1] is listed as “+”. In addition, the EC50 in experiment [2] is above 10000 nM.

On to `CNC(=O)[C@@H](NC(=O)c1nc(-c2cncnc2)n2c1CNCC2)C(C)(C)C` [Compound 19, (S)-N-(3,3-dimethyl-1-(methylamino)-1-oxobutan-2-yl)-3-(pyrimidin-5-yl)-5,6,7,8-tetrahydroimidazo[1,5-a]pyrazine-1-carboxamide], for which the EC50 in experiment [1] and in experiment [2] was above 10000 nM each time.

`CNC(=O)[C@@H](NC(=O)c1nc(-c2ccccc2)n2c1CN(S(=O)(=O)c1ccccc1[N+](=O)[O-])CC2)C(C)(C)C` [Compound 97, (S)-N-(3,3-dimethyl-1-(methylamino)-1-oxobutan-2-yl)-7-(2-nitrophenylsulfonyl)-3-phenyl-5,6,7,8-tetrahydroimidazo[1,5-a]pyrazine-1-carboxamide]: the “+/− RCB2” value in experiment [1] was “−”. In experiment [2], this molecule came in with a 50% effective concentration (EC50) above 10000 nM.

For `CN1CCCn2c(-c3ccc(F)cc3F)nc(C(=O)N[C@H](C(N)=O)C(C)(C)C)c2C1` [Compound 578, (S)-N-(1-amino-3,3-dimethyl-1-oxobutan-2-yl)-3-(2,4-difluorophenyl)-8-methyl-6,7,8,9-tetrahydro-5H-imidazo[1,5-a][1,4]diazepine-1-carboxamide], in experiment [1], the “+/− RCB2” value is “+”. Besides, in experiment [2], the “+/− HCB1” value is reported as “+”.

As to `Cc1ccc(-c2nc(C(=O)N[C@H](c3nc(C)no3)C(C)(C)C)c3n2CCCN(C(=O)OC(C)(C)C)C3)c(F)c1` [Compound 518, (S)-tert-butyl 1-(2,2-dimethyl-1-(3-methyl-1,2,4-oxadiazol-5-yl)propylcarbamoyl)-3-(2-fluoro-4-methylphenyl)-6,7-dihydro-5H-imidazo[1,5-a][1,4]diazepine-8(9H)-carboxylate], the “+/− RCB2” value in experiment [1] is “−”. The same molecule returned a 50% effective concentration (EC50) in experiment [2] above 10000 nM.

On to `CNC(=O)[C@@H](NC(=O)c1nc(CCc2ccsc2)n2c1CN(C)CCC2)C(C)(C)C` [Compound 495, (S)-N-(3,3-dimethyl-1-(methylamino)-1-oxobutan-2-yl)-8-methyl-3-(2-(thiophen-3-yl)ethyl)-6,7,8,9-tetrahydro-5H-imidazo[1,5-a][1,4]diazepine-1-carboxamide], for which the “+/− RCB2” value in experiment [1] is “+”. In addition, in experiment [2], the concentration giving a half-maximal response (EC50) is above 10000 nM.

As for `O=C(NCC1CCOCC1)c1nc(-c2ccccc2)n2c1CNCC2` [Compound 46, 3-phenyl-N-((tetrahydro-2H-pyran-4-yl)methyl)-5,6,7,8-tetrahydroimidazo[1,5-a]pyrazine-1-carboxamide], the “+/− RCB2” value in experiment [1] is reported as “−”. For the same molecule, the half-maximal effective concentration (EC50) in experiment [2] (setting [3]) is above 10000 nM.

With `CC(C)CCNC(=O)c1nc(-c2ccc(Cl)cc2)n2c1CN(C(=O)c1ccccc1)CC2` [Compound 130, 7-benzoyl-3-(4-chlorophenyl)-N-isopentyl-5,6,7,8-tetrahydroimidazo[1,5-a]pyrazine-1-carboxamide], in experiment [1], the “+/− RCB2” value is “−”. The molecule further came in with a half-maximal effective concentration (EC50) in experiment [2] above 10000 nM.

With `CNC(=O)[C@@H](NC(=O)c1nc(-c2cccc(F)c2)n2c1CNCC2)C(C)(C)C` [Compound 4, (S)-N-(3,3-dimethyl-1-(methylamino)-1-oxobutan-2-yl)-3-(3-fluorophenyl)-5,6,7,8-tetrahydroimidazo[1,5-a]pyrazine-1-carboxamide], the concentration for a half-maximal effect (EC50) in experiment [1] and in experiment [2] was above 10000 nM throughout.

Turning to `CN1CCn2c(-c3ccccc3)nc(C(=O)CCCc3ccccc3)c2C1` [Compound 294, 1-(7-methyl-3-phenyl-5,6,7,8-tetrahydroimidazo[1,5-a]pyrazin-1-yl)-4-phenylbutan-1-one], in experiment [1], the “+/− RCB2” value is “−”. Besides, the EC50 in experiment [2] (setting [3]) is above 10000 nM.

As to `CNC(=O)[C@@H](NC(=O)c1nc(-c2ccc(C)cc2F)n2c1CNCCC2)C(C)(C)C` [Compound 316, (S)-N-(3,3-dimethyl-1-(methylamino)-1-oxobutan-2-yl)-3-(2-fluoro-4-methylphenyl)-6,7,8,9-tetrahydro-5H-imidazo[1,5-a][1,4]diazepine-1-carboxamide], the “+/− RCB2” value in experiment [1] was “−”. The same molecule returned a half-maximal effective concentration (EC50) in experiment [2] above 10000 nM.

Take `C[C@@H](NC(=O)c1nc(-c2ccccc2)n2c1CN(C(=O)C(C)(C)C)CC2)C1CCCCC1` [Compound 133, (R)-N-(1-cyclohexylethyl)-3-phenyl-7-pivaloyl-5,6,7,8-tetrahydroimidazo[1,5-a]pyrazine-1-carboxamide]: the “+/− RCB2” value in experiment [1] was “−”. Further, the EC50 in experiment [2] is above 10000 nM.

As to `CCS(=O)(=O)N1CCn2c(-c3ccccc3)nc(C(=O)NN3CCCCC3)c2C1` [Compound 115, 7-(ethylsulfonyl)-3-phenyl-N-(piperidin-1-yl)-5,6,7,8-tetrahydroimidazo[1,5-a]pyrazine-1-carboxamide], in experiment [1], the “+/− RCB2” value is reported as “−”. The EC50 in experiment [2] (setting [3]) is above 10000 nM.

Regarding `CN1CCn2c(-c3ccc(Cl)cc3F)nc(C(=O)N3CCC4(CCN(C)C4=O)CC3)c2C1` [Compound 221, 8-(3-(4-chloro-2-fluorophenyl)-7-methyl-5,6,7,8-tetrahydroimidazo[1,5-a]pyrazine-1-carbonyl)-2-methyl-2,8-diazaspiro[4.5]decan-1-one], the EC50 in experiment [1] and in experiment [2] was above 10000 nM throughout.

In the case of `CNC(=O)[C@@H](NC(=O)c1nc(-c2ccc(C)cc2F)n2c1CN(CC1CC1)CCC2)C(C)(C)C` [Compound 323, (S)-8-(cyclopropylmethyl)-N-(3,3-dimethyl-1-(methylamino)-1-oxobutan-2-yl)-3-(2-fluoro-4-methylphenyl)-6,7,8,9-tetrahydro-5H-imidazo[1,5-a][1,4]diazepine-1-carboxamide], the “+/− RCB2” value in experiment [1] is listed as “−”. For the same molecule, in experiment [2], the EC50 is above 10000 nM.

Regarding `CNC(=O)[C@@H](NC(=O)c1nc(-c2ccc(OC)cc2F)n2c1CN(C)CCC2)C(C)(C)C` [Compound 358], the “+/− RCB2” value in experiment [1] is reported as “−”. Also, the half-maximal effective concentration (EC50) in experiment [2] was above 10000 nM.

With `CNC(=O)[C@@H](NC(=O)c1nc(-c2ccccc2)n2c1CN(C(=O)C1CC1)CC2)C(C)(C)C` [Compound 126, (S)-7-(cyclopropanecarbonyl)-N-(3,3-dimethyl-1-(methylamino)-1-oxobutan-2-yl)-3-phenyl-5,6,7,8-tetrahydroimidazo[1,5-a]pyrazine-1-carboxamide], the “+/− RCB2” value in experiment [1] is “−”. The molecule also yielded an EC50 in experiment [2] above 10000 nM.

`CNC(=O)[C@@H](NC(=O)c1nc(-c2cccs2)n2c1CN(C)CCC2)C(C)(C)C` [Compound 349, (S)-N-(3,3-dimethyl-1-(methylamino)-1-oxobutan-2-yl)-8-methyl-3-(thiophen-2-yl)-6,7,8,9-tetrahydro-5H-imidazo[1,5-a][1,4]diazepine-1-carboxamide]: in experiment [1], the “+/− RCB2” value is “+”. The molecule further displayed a half-maximal effective concentration (EC50) in experiment [2] above 10000 nM.

For the molecule `CC(=O)N1CCn2c(-c3ccccc3)nc(C(=O)Nc3ccccc3)c2C1` [Compound 173, 7-acetyl-N,3-diphenyl-5,6,7,8-tetrahydroimidazo[1,5-a]pyrazine-1-carboxamide], the half-maximal effective concentration (EC50) in experiment [1] (groups >100 nM-10 μM and >10 μM, cAMP, CHO-K1 rCB2, read-out: EC50 RCB2) is above 10000 nM; in experiment [2] (setting [3]), above 10000 nM.

Turning to `CNC(=O)[C@@H](NC(=O)c1nc(-c2cnn(C)c2)n2c1CN(C)CCC2)C(C)(C)C` [Compound 447, (S)-N-(3,3-dimethyl-1-(methylamino)-1-oxobutan-2-yl)-8-methyl-3-(1-methyl-1H-pyrazol-4-yl)-6,7,8,9-tetrahydro-5H-imidazo[1,5-a][1,4]diazepine-1-carboxamide], in experiment [1], the “+/− RCB2” value is listed as “+”. For the same molecule, the “+/− HCB1” value in experiment [2] is recorded as “+”.

Consider `CC(C)CN1CCn2c(-c3ccccc3)nc(C(=O)NCC3CCOCC3)c2C1` [Compound 167, 7-isobutyl-3-phenyl-N-((tetrahydro-2H-pyran-4-yl)methyl)-5,6,7,8-tetrahydroimidazo[1,5-a]pyrazine-1-carboxamide], for which the “+/− RCB2” value in experiment [1] is “−”. The half-maximal effective concentration (EC50) in experiment [2] is above 10000 nM.
